Several values for one entry are separate records, joined by “and”; a condition that tells them apart may be missing. Equal entries are not always repeated.
Columns and labels:
[1] = test system: wild-type and Pept2 null mice; assay: Hot-plate test; assay type: in vivo; details: for ED50: icv
rat PEPT2 = details: read-out: Ki (PEPT2 inhibitor); LLC-PK1 cells stably transfected with rat PEPT2; ref Terada et al. 2000; cited from earlier work
PEPT2 = details: rat choroid plexus; concentrations 1,000 times in excess; ref Teuscher et al. 2001; cited from earlier work
[2] = test system: opioid peptide transport system; details: SK-N-SH cells; ref Thakker et al. 2008; cited from earlier work

CC(C)C[C@H](NC(=O)[C@@H](O)[C@H](N)Cc1ccccc1)C(=O)O [bestatin]
effect on the MPE of L-KTP ([1]; bestatin 160 nmol icv with 4 nmol L-KTP, Pept2 null mice, p=0.2931): little effect | Ki (rat PEPT2): 18 µM

L-Tyr-D-Arg [D-KTP]
maximum analgesia ([1]; 100 nmol icv, both genotypes): 100 % MPE | duration of response to 100 nmol dose ([1]; 100 nmol icv, both genotypes, 40 min experiment): fully analgesic throughout the 40 min experiment | ED50 ([1]; Pept2 null mice, response at 5 min, estimate ± standard error): 9.1 ± 0.8 nmol | time of maximum analgesia ([1]; after icv injection, both genotypes): 5 min | ED50 ([1]; both genotypes (wild-type and Pept2 null)): 9 to 10 nmol | ED50 ([1]; wild-type mice, response at 5 min, estimate ± standard error): 10.3 nmol and 10.3 ± 1.0 nmol | difference in ED50 between genotypes ([1]; wild-type vs Pept2 null): ~ 10% | effect on the uptake of GlySar (PEPT2): no effect | stimulation of opioid peptide transport system [2]: little stimulation

From article PMC2898572 (Journal of neurochemistry, 2009)
